Laboratory results published in patent publication US20100184679A1, “USE OF A COMBINATION OF CART PEPTIDES AS A THERAPEUTIC AGENT” (priority 2007, published 2010).
Where no end group is shown, it is not given here.

Tests used:
HIV-1IIIB = assay: HIV-1 antiviral assay in CEM-SS cells (MTS readout)
HCMV strain AD169 = assay: HCMV plaque formation assay in MRC-5 cells; type: cell-based; details: for inhibition of HCMV plaque formation as compared to the virus control experiment: 10 micrograms per ml, 7-10 days
From the text: Ganciclovir was used as positive control.

[1] = system: hepatitis B virus (HBV) ayw strain; assay: HBV assay in HepG2-2.2.15 cells (TaqMan PCR of secreted HBV DNA); type: cell-based; details: 10 micrograms per ml, six days, HBV DNA in supernatant
[2] = system: Primary Human endothelial cells (HUVEC); assay: Endothelial cell migration assay; type: cell-based; details: 10 micrograms per ml, 22 hours
Procedure: Thereafter, designated concentration of testing peptides—10 micrograms per ml—was added in duplicate wells.

Human A549 cells = assay: Apoptosis induction assay (Annexin-5); type: cell-based; details: 10 micrograms per ml, 24 hours
Procedure: Human A549 cells (carcinomic human alveolar basal epithelial cells) were utilized in the experiments employing the Annexin-5 apoptosis assay. […] Test peptides—10 micrograms per ml—were exposed for 24 hours to the A549 cells before they were analyzed for signs of apoptosis.

HUVEC = assay: Endothelial tube formation assay; type: cell-based, human; details: 10 micrograms per ml, 20 hours
From the text: Positive control was vehicle only.

murine spleen cells = assay: Th1/Th2 cytokine profiling assay (Ovalbumin-restimulated spleen cells, CBA Kit); type: cell-based, Balb/c mice; details: 10 micrograms per ml, Ovalbumin restimulation, 72 hours
From the text: The Balb/c mice (originated in 1923, it is a popular strain and is used in many different research disciplines. Also classified as an inbred from the production of 20 or more successive brother-sister matings, the Balb/c mouse is albino and small in size) were immunized on Days 1, 15, and 29 with Ovalbumin (Ovalbumin is the main protein found in egg white, commonly used to stimulate an immunological reaction in test animals) in PBS (5 micrograms/injection). On day 50, spleens of the mice were harvested (3 weeks after last boost with Ovalbumin), Cells were cultured (2×10^5/well in triplicate) and incubated with culture medium or test peptides—10 micrograms per ml—for 30 min. Thereafter, additional Ovalbumin was added to the cells at 10 micrograms/ml for in vitro restimulation of the cells. 72 hours later, cell supernatants were harvested and assayed using the Becton Dickinson Mouse Th1/Th2 Cytokine CBA Kit. This kit can be used to measure Interleukin-2 (IL-2), Interleukin-4 (IL-4), Interleukin-5 (IL-5), Interferon-γ (IFN-γ), and Tumor Necrosis Factor-α (TNF-α) protein levels in a single sample. The kit performance has been optimized for analysis of physiologically relevant concentrations (pg/ml levels) of specific cytokine proteins in tissue culture supernatants and serum samples.

Row | Molecule | antiviral activity of positive control compounds (HIV-1) (HIV-1IIIB) | inhibition of HBV replication as compared to the virus control infection [1] [%] | inhibition of the migration of human endothelial cells [2] [%] | inhibition of HCMV plaque formation as compared to the virus control experiment (HCMV strain AD169) [%] | induction of apoptosis on human lung cells (Human A549 cells) | inhibition of the tube formation of human endothelial cells (HUVEC) [%] | change of the production of IFN-gamma (murine spleen cells) | change of the production of IL-5 (murine spleen cells) | production of TNF-alpha, induced by (murine spleen cells) [%] | also measured
1 | Cc1cn([C@H]2C[C@H](N=[N+]=[N-])[C@@H](CO)O2)c(=O)[nH]c1=O [AZT] | expected levels of antiviral activity |  |  |  |  |  |  |  |  | 
2 | Nc1nc(O)c2ncn(COC(CO)CO)c2n1 [Ganciclovir, reference compound] |  |  |  |  |  |  |  |  |  | antiviral activity of positive control compound (HCMV) (HCMV strain AD169; positive control): expected levels of antiviral activity
3 | CC(C)(C)NC(=O)[C@@H]1CN(Cc2cccnc2)CCN1C[C@@H](O)C[C@@H](Cc1ccccc1)C(=O)N[C@H]1c2ccccc2C[C@H]1O [indinavir] | expected levels of antiviral activity |  |  |  |  |  |  |  |  | 
4 | Tyr-Gly-Gln-Val-Pro-Met-Cys-Asp-Ala-Gly-Glu-Gln-Cys-Ala-Val-OH (YGQVPMCDAGEQCAV-OH; cysteine pairing not given here) [Peptide 1] |  | 33.6 | 15 | 0.7 | did not show any significant induction | 16 | did not significantly change | did not significantly change | 95.0 | production of IL-2, induced by (murine spleen cells): 147.7%; production of IL-4, induced by (murine spleen cells): 545.4%
5 | Val-Pro-Ile-Tyr-Glu-Lys-Lys-Tyr-Gly-Gln-Val-Pro-Met-Cys-Asp-Ala-Gly-Glu-Gln-Cys-Ala-Val-Arg-Lys-Gly-Ala-Arg-Ile-Gly-Lys-Leu-Cys-Asp-Cys-Pro-Arg-Gly-Thr-Ser-Cys-Asn-Ser-Phe-Leu-Leu-Lys-Cys-Leu-OH (VPIYEKKYGQVPMCDAGEQCAVRKGARIGKLCDCPRGTSCNSFLLKCL-OH; cysteine pairing not given here) [Peptide 2] |  | 45.0 | 22 | 6.6 | 17.8% | 12 | did not significantly change | did not significantly change | 27.5 | production of IL-2, decreased by (murine spleen cells): 61.5%; production of IL-4, decreased by (murine spleen cells): 100%
